# In the supplement of paper PMC10307832:
# Tests used:
# Experiment in all cases: relative viability (nuclei count vs DMSO), 5 days (fraction); higher = more cells survive
# [1] = test system: 201T
# Outline: (§1)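 After 5 days of treatment, lung cancer cells in 1536-well plates were fixed and stained in a single step (final 0.05% Triton X-100, 1% formaldehyde, 1 ug/ml Hoechst) and their nuclei counted on 4× images. Treatment had been applied by pin tool the day after seeding as one drug alone or as a fixed anchor-drug dose with five library-drug doses (not always all listed) in √10 steps. Relative viability is the nuclei count of treated wells divided by that of vehicle wells, and values are medians of duplicate plates.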
# [2] = test system: BEN
# Outline: as §1
# [3] = test system: CAL-12T
# Outline: as §1
# [4] = test system: HCC-827
# Outline: as §1
# [5] = test system: LCLC-103H
# Outline: as §1
# [6] = test system: LCLC-97TM1
# Outline: as §1
# [7] = test system: LXF-289
# Outline: as §1
# [8] = test system: NCI-H1395
# Outline: as §1
# [9] = test system: NCI-H1437
# Outline: as §1
# [10] = test system: NCI-H1792
# Outline: as §1
# [11] = test system: NCI-H1793
# Outline: as §1
# [12] = test system: NCI-H1944
# Outline: as §1
# [13] = test system: NCI-H2087
# Outline: as §1
# [14] = test system: NCI-H2228
# Outline: as §1
# [15] = test system: NCI-H2405
# Outline: as §1
# [16] = test system: NCI-H3122
# Outline: as §1
# [17] = test system: NCI-H322M
# Outline: as §1
# [18] = test system: NCI-H647
# Outline: as §1
# [19] = test system: NCI-H727
# Outline: as §1
# [20] = test system: RERF-LC-KJ
# Outline: as §1
# [21] = test system: SK-LU-1
# Outline: as §1
structure (smiles),measurement,setting,value
O=c1cc(-c2cccc3c2Sc2ccccc2S3)oc(N2CCOCC2)c1 + C[C@]1(O)C[C@@H](c2nc(-c3ccc4ccc(-c5ccccc5)nc4c3)c3c(N)nccn32)C1 [Linsitinib] (partner 1 µM),relative viability,[1]; first compound 0.08 µM,0.99
same,relative viability,[1]; first compound 0.253 µM,1.04
same,relative viability,[1]; first compound 0.8 µM,0.929
same,relative viability,[1]; first compound 2.53 µM,0.974
same,relative viability,[1]; first compound 8 µM,0.986
same,relative viability,[2]; first compound 0.08 µM,0.996
same,relative viability,[2]; first compound 0.253 µM,1.04
same,relative viability,[2]; first compound 0.8 µM,1.14
same,relative viability,[2]; first compound 2.53 µM,0.898
same,relative viability,[2]; first compound 8 µM,1.23
same,relative viability,[3]; first compound 0.08 µM,0.73
same,relative viability,[3]; first compound 0.253 µM,0.861
same,relative viability,[3]; first compound 0.8 µM,0.899
same,relative viability,[3]; first compound 2.53 µM,0.77
same,relative viability,[3]; first compound 8 µM,0.503
same,relative viability,[4]; first compound 0.08 µM,0.892
same,relative viability,[4]; first compound 0.253 µM,0.979
same,relative viability,[4]; first compound 0.8 µM,0.925
same,relative viability,[4]; first compound 2.53 µM,0.848
same,relative viability,[4]; first compound 8 µM,0.915
same,relative viability,[5]; first compound 0.08 µM,1.06
same,relative viability,[5]; first compound 0.253 µM,1.1
same,relative viability,[5]; first compound 0.8 µM,1.08
same,relative viability,[5]; first compound 2.53 µM,1.06
same,relative viability,[5]; first compound 8 µM,1.06
same,relative viability,[6]; first compound 0.08 µM,0.18
same,relative viability,[6]; first compound 0.253 µM,0.194
same,relative viability,[6]; first compound 0.8 µM,0.203
same,relative viability,[6]; first compound 2.53 µM,0.188
same,relative viability,[6]; first compound 8 µM,0.185
same,relative viability,[7]; first compound 0.08 µM,0.993
same,relative viability,[7]; first compound 0.253 µM,0.976
same,relative viability,[7]; first compound 0.8 µM,0.99
same,relative viability,[7]; first compound 2.53 µM,0.96
same,relative viability,[7]; first compound 8 µM,1.07
same,relative viability,[8]; first compound 0.08 µM,1.25
same,relative viability,[8]; first compound 0.253 µM,1.06
same,relative viability,[8]; first compound 0.8 µM,1.26
same,relative viability,[8]; first compound 2.53 µM,0.941
same,relative viability,[8]; first compound 8 µM,1.07
same,relative viability,[9]; first compound 0.08 µM,1.12
same,relative viability,[9]; first compound 0.253 µM,1.49
same,relative viability,[9]; first compound 0.8 µM,1.15
same,relative viability,[9]; first compound 2.53 µM,0.997
same,relative viability,[9]; first compound 8 µM,1.12
same,relative viability,[10]; first compound 0.253 µM,0.61
same,relative viability,[10]; first compound 0.8 µM,0.502
same,relative viability,[10]; first compound 2.53 µM,0.535
same,relative viability,[10]; first compound 8 µM,0.516
same,relative viability,[11]; first compound 0.08 µM,0.674
same,relative viability,[11]; first compound 0.253 µM,1.19
same,relative viability,[11]; first compound 0.8 µM,0.992
same,relative viability,[11]; first compound 2.53 µM,0.821
same,relative viability,[11]; first compound 8 µM,0.919
same,relative viability,[12]; first compound 0.08 µM,1.04
same,relative viability,[12]; first compound 0.253 µM,1.26
same,relative viability,[12]; first compound 0.8 µM,1.23
same,relative viability,[12]; first compound 8 µM,1.18
same,relative viability,[13]; first compound 0.08 µM,1.1
same,relative viability,[13]; first compound 0.253 µM,1.03
same,relative viability,[13]; first compound 0.8 µM,0.927
same,relative viability,[13]; first compound 2.53 µM,0.952
same,relative viability,[13]; first compound 8 µM,1.01
same,relative viability,[14]; first compound 0.08 µM,0.545
same,relative viability,[14]; first compound 0.253 µM,0.588
same,relative viability,[14]; first compound 0.8 µM,0.826
same,relative viability,[14]; first compound 2.53 µM,0.592
same,relative viability,[14]; first compound 8 µM,0.63
same,relative viability,[15]; first compound 0.08 µM,0.878
same,relative viability,[15]; first compound 0.253 µM,0.924
same,relative viability,[15]; first compound 0.8 µM,0.85
same,relative viability,[15]; first compound 2.53 µM,0.822
same,relative viability,[15]; first compound 8 µM,0.768
same,relative viability,[16]; first compound 0.08 µM,1.07
same,relative viability,[16]; first compound 0.253 µM,1.16
same,relative viability,[16]; first compound 0.8 µM,1.06
same,relative viability,[16]; first compound 2.53 µM,0.99
same,relative viability,[16]; first compound 8 µM,1.07
same,relative viability,[17]; first compound 0.08 µM,0.868
same,relative viability,[17]; first compound 0.253 µM,1.04
same,relative viability,[17]; first compound 0.8 µM,0.866
same,relative viability,[17]; first compound 2.53 µM,0.928
same,relative viability,[17]; first compound 8 µM,0.839
same,relative viability,[18]; first compound 0.08 µM,1.3
same,relative viability,[18]; first compound 0.253 µM,1.16
same,relative viability,[18]; first compound 0.8 µM,1.16
same,relative viability,[18]; first compound 2.53 µM,1.03
same,relative viability,[18]; first compound 8 µM,1.35
same,relative viability,[19]; first compound 0.253 µM,0.284
same,relative viability,[19]; first compound 2.53 µM,0.314
same,relative viability,[19]; first compound 8 µM,0.304
same,relative viability,[20]; first compound 0.08 µM,0.865
same,relative viability,[20]; first compound 0.253 µM,0.939
same,relative viability,[20]; first compound 0.8 µM,0.85
same,relative viability,[20]; first compound 2.53 µM,1.01
same,relative viability,[20]; first compound 8 µM,0.763
same,relative viability,[21]; first compound 0.08 µM,1.14
same,relative viability,[21]; first compound 0.253 µM,1.22
same,relative viability,[21]; first compound 0.8 µM,1.27
same,relative viability,[21]; first compound 2.53 µM,0.952
same,relative viability,[21]; first compound 8 µM,0.918
